Holding throughout (type): in vivo
Test [1] deals with sandbur (southern sandbur, Cenchrus echinatus). Briefly: Test F pre-/postemergence: sandbur. The source says: (§1) Seeds of plant species selected from corn (Zea mays), soybean (Glycine max), velvetleaf (Abutilon theophrasti), lambsquarters (Chenopodium album), poinsettia, wild (wild poinsettia, Euphorbia heterophylla), pigweed, palmer (palmer pigweed, Amaranthus palmeri), waterhemp (common waterhemp, Amaranthus rudis), surinam grass (Brachiaria decumbens), crabgrass, Brazil (Brazilian crabgrass, Digitaria horizontalis), panicum, fall (fall panicum Panicum dichotomiflorum), crabgrass, large (large crabgrass, Digitaria sanguinalis), foxtail, giant (giant foxtail, Setaria faberii), foxtail, green (green foxtail Setaria viridis), goosegrass (Eleusine indica), ragweed (common ragweed, Ambrosia elatior), barnyardgrass (Echinochloa crus-galli), sandbur (southern sandbur, Cenchrus echinatus), arrowleaf sida (Sida rhombifolia), ryegrass, Italian (Italian ryegrass, Lolium multiflorum), dayflower, VA (Virginia (VA) dayflower, Commelina virginica), field bindweed (Convolvulus arvensis), cocklebur (common cocklebur, Xanthium strumarium), morningglory (Ipomoea coccinea), nightshade (eastern black nightshade, Solanum ptycanthum), kochia (Kochia scoparia), nutsedge, yellow (yellow nutsedge, Cyperus esculentus), johnsongrass (Sorghum halepense), smartweed (ladysthumb smartweed, Polygonum persicaria), and beggarticks (hairy beggarticks, Bidens pilosa), were planted into a silt loam soil and treated preemergence with test chemicals formulated in a non-phytotoxic solvent mixture which included a surfactant. At the same time, plants selected from these crop and weed species and also pigweed (Amaranthus retroflexus), waterhemp_RES1 (ALS/Triazine resistant common waterhemp, Amaranthus rudis) and waterhemp_RES2 (ALS/HPPD resistant common waterhemp, Amaranthus rudis) were planted in pots containing a planting medium comprising spaghnum peat moss, vermiculite, wetting agent and starter nutrients treated with postemergence applications of some of the test chemicals formulated in the same manner. Plants ranged in height from 2 to 18 cm for postemergence treatments (1- to 4-leaf stage).
(§2) Treated plants and controls were maintained in a greenhouse for 14 to 21 days, after which time all species were compared to controls and visually evaluated. Plant response ratings, summarized in Table E, are based on a scale of 0 to 100 where 0 is no effect and 100 is complete control. A dash (-) response means no test result.

Test [2] has as its system johnsongrass (Sorghum halepense). Briefly: Test F pre-/postemergence: johnsongrass. Conditions: Preemergence.
Text: as §1, §2

In test [3] the test system is goosegrass (Eleusine indica). The experiment in a line: Test F pre-/postemergence: goosegrass. As to conditions: Preemergence.
Text: as §1, §2

In test [4] the test system is foxtail, green (green foxtail Setaria viridis). The experiment in a line: Test F pre-/postemergence: foxtail, green. As to conditions: Preemergence.
Text: as §1, §2

Test [5] concerns foxtail, giant (giant foxtail, Setaria faberii). Briefly: Test F pre-/postemergence: foxtail, giant. As to conditions: Preemergence.
Text: as §1, §2

Test [6] concerns wheat, winter (winter wheat, Triticum aestivum). The experiment in a line: Test D pre-/postemergence: wheat, winter. In short, it runs like this: (§3)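 Pre- and postemergence herbicide screen. Soil for pre: silt loam; post medium: peat moss, vermiculite, wetting agent, starter nutrients. Plant stage at post: 1- to 4-leaf. Readout: visual % control, 14–21 days.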
In test [7] the test system is bromegrass, downy (downy bromegrass, Bromus tectorum). The experiment in a line: Test D pre-/postemergence: bromegrass, downy. The gist of the method:
as §3

Test [8] deals with pigweed (Amaranthus retroflexus). The experiment in a line: Test D pre-/postemergence: pigweed. In short, it runs like this: as §3
In test [9] the test system is buckwheat, wild (wild buckwheat, Polygonum convolvulus). The experiment in a line: Test D pre-/postemergence: buckwheat, wild. As to conditions: for Plant response rating, Buckwheat, Wild: scale 0 to 100. In short, it runs like this: as §3
[10] abbreviates: Postemergence, 16 g ai/ha, scale 0 to 100.
[11] abbreviates: 16 g ai/ha, scale 0 to 100, 0 no effect, 100 complete control.
Setting [12] is: 31 g ai/ha, scale 0 to 100, 0 no effect, 100 complete control.
Where [13] appears, read: Preemergence, 16 g ai/ha, scale 0 to 100, 0 no effect, 100 complete control.
Where [14] appears, read: Preemergence, 31 g ai/ha, scale 0 to 100, 0 no effect, 100 complete control.
Where [15] appears, read: Preemergence, 125 g ai/ha, scale 0 to 100.
Where [16] appears, read: Preemergence, 250 g ai/ha, scale 0 to 100.
[17] abbreviates: Postemergence, 31 g ai/ha, scale 0 to 100 (0 no effect, 100 complete control).
Where [18] appears, read: Postemergence, 62 g ai/ha, scale 0 to 100 (0 no effect, 100 complete control).
Setting [19] is: Postemergence, 125 g ai/ha, scale 0 to 100, 0 no effect, 100 complete control.
The mark [20] stands for this setting: Postemergence, 250 g ai/ha, scale 0 to 100 (0 no effect, 100 complete control).
The mark [21] stands for this setting: Preemergence, 62 g ai/ha, scale 0 to 100.

4 compounds from US9302999B2, “Substituted triazoles as herbicides” (E. I. DU PONT DE NEMOURS AND COMPANY, priority 2012, dated 2016) can be followed below.

Consider `Cc1nn(-c2ccnc(Cl)c2)nc1Cc1ccnc(C(F)(F)F)c1` [Compound 141], for which the “Plant response rating, Sandbur” value in test [1] (Postemergence, 8 g ai/ha, scale 0 to 100) is given as 10; in [1] (setting [10]), 10; in [1] (Postemergence, 31 g ai/ha, scale 0 to 100) it was 20; in test [1] (Postemergence, 62 g ai/ha, scale 0 to 100), 30; in test [1] (Postemergence, 125 g ai/ha, scale 0 to 100), 35.

In the case of `CCc1nn(-c2ccc(F)cc2)nc1Cc1ccnc(C(F)(F)F)c1` [Compound 154], the “Plant response rating, Johnsongrass” value turned out to be 0 in test [2] (setting [11]); 20 in [2] (setting [12]); 25 in [2] (62 g ai/ha, scale 0 to 100); 50 in test [2] (125 g ai/ha, scale 0 to 100); 98 in test [2] (250 g ai/ha, scale 0 to 100). In addition, the “Plant response rating, Sandbur” value in test [1] (setting [13]) came to 0; in test [1] (setting [14]), 30; in [1] (setting [15]) it was 98; in [1] (setting [16]), 100. Further, the “Plant response rating, Goosegrass” value stood at 10 in [3] (setting [11]); 95 in test [3] (setting [12]); 95 in [3] (62 g ai/ha, scale 0 to 100); 100 in test [3] (125 g ai/ha, scale 0 to 100); 100 in test [3] (250 g ai/ha, scale 0 to 100). For the same compound, the “Plant response rating, Foxtail, Green” value in test [4] (setting [11]) was 40; in test [4] (setting [12]), 75; in test [4] (62 g ai/ha, scale 0 to 100), 100; in test [4] (125 g ai/ha, scale 0 to 100), 100; in test [4] (250 g ai/ha, scale 0 to 100), 100. The “Plant response rating, Foxtail, Giant” value in test [5] (setting [11]) was 5; in test [5] (setting [12]) it was 65; in test [5] (62 g ai/ha, scale 0 to 100), 100; in test [5] (125 g ai/ha, scale 0 to 100), 100; in [5] (250 g ai/ha, scale 0 to 100), 100.

As for `Cc1nn(-c2ccc(C(F)(F)F)cc2)nc1Oc1ccnc(C(F)(F)F)c1` [Compound 120], the “Plant response rating: Wheat, Winter” value came to 5 in test [6] (setting [17]), 10 in test [6] (setting [18]), 15 in [6] (setting [19]) and 20 in [6] (setting [20]). For the same compound, the “Plant response rating, Wheat, Winter” value in test [6] (setting [10]) is listed as 5; in test [6] (setting [13]), 0; in [6] (setting [14]), 0; in [6] (setting [21]) it was 5; in test [6] (setting [15]) it was 5; in test [6] (setting [16]), 10. The “Plant response rating: Bromegrass, Downy” value is listed as 10 in test [7] (setting [17]), 10 in test [7] (setting [18]), 20 in test [7] (setting [19]) and 25 in test [7] (setting [20]). The “Plant response rating, Bromegrass, Downy” value in [7] (setting [10]) is 5; in [7] (setting [13]), 0; in test [7] (setting [14]), 0; in test [7] (setting [21]), 5; in [7] (setting [15]), 25; in test [7] (setting [16]), 60. For the same compound, the “Plant response rating: Pigweed” value was found to be 90 in test [8] (setting [17]), 90 in [8] (setting [18]), 100 in test [8] (setting [19]) and 100 in test [8] (setting [20]). In addition, the “Plant response rating, Pigweed” value in [8] (setting [10]) is 0; in test [8] (setting [13]), 30; in [8] (setting [14]) it was 100; in [8] (setting [21]), 100; in test [8] (setting [15]) it was 100; in test [8] (setting [16]) it was 100. The “Plant response rating: Buckwheat, Wild” value in [9] (setting [17]) was determined as 75; in test [9] (setting [18]), 85; in test [9] (setting [19]), 95; in test [9] (setting [20]) it was 98. Further, the “Plant response rating, Buckwheat, Wild” value in test [9] (Postemergence, 16 g ai/ha) amounted to 50; in test [9] (Preemergence, 62 g ai/ha) it was 10; in [9] (Preemergence, 125 g ai/ha) it was 70; in test [9] (Preemergence, 250 g ai/ha) it was 100.

Turning to `Cc1nn(-c2ccc(C(F)(F)F)cn2)nc1Oc1ccnc(C(F)(F)F)c1` [Compound 23], the “Plant response rating: Wheat, Winter” value in test [6] (setting [17]) was 5; in test [6] (setting [18]), 10; in test [6] (setting [19]), 15; in test [6] (setting [20]), 15. Besides, the “Plant response rating, Wheat, Winter” value in [6] (setting [10]) worked out at 0. Besides, the “Plant response rating: Bromegrass, Downy” value in test [7] (setting [17]) was found to be 10; in test [7] (setting [18]) it was 15; in [7] (setting [19]), 20; in test [7] (setting [20]) it was 25. Also, in [7] (setting [10]), the “Plant response rating, Bromegrass, Downy” value is listed as 0. The “Plant response rating: Pigweed” value stood at 50 in test [8] (setting [17]), 80 in test [8] (setting [18]), 95 in test [8] (setting [19]) and 100 in test [8] (setting [20]). Moreover, in test [8] (setting [10]), the “Plant response rating, Pigweed” value was found to be 50. Further, the “Plant response rating: Buckwheat, Wild” value turned out to be 25 in [9] (setting [17]), 35 in test [9] (setting [18]), 40 in test [9] (setting [19]) and 75 in test [9] (setting [20]). For the same compound, the “Plant response rating, Buckwheat, Wild” value in test [9] (Postemergence, 16 g ai/ha) is 20.
